Legend:
Details in all cases: Membrane
[1] = biological target: Inositol 1,4,5-trisphosphate-gated calcium channel ITPR3 (Rattus norvegicus) (UniProt Q63269); assay: Inositol 1,4,5-trisphosphate receptor activity by residual [3H]- IP3 binding to rat cerebellar membranes by the compound at logC = -6M
[2] = biological target: Inositol 1,4,5-trisphosphate-gated calcium channel ITPR3 (Rattus norvegicus) (UniProt Q63269); assay: Inositol 1,4,5-trisphosphate receptor activity by residual [3H]- IP3 binding to rat cerebellar membranes by the compound at logC = -7M
[3] = biological target: Inositol 1,4,5-trisphosphate-gated calcium channel ITPR3 (Rattus norvegicus) (UniProt Q63269); assay: Inositol 1,4,5-trisphosphate receptor activity by residual [3H]- IP3 binding to rat cerebellar membranes by the compound at logC = -9M
[4] = biological target: Inositol 1,4,5-trisphosphate-gated calcium channel ITPR3 (Rattus norvegicus) (UniProt Q63269); assay: Inositol 1,4,5-trisphosphate receptor activity by residual [3H]- IP3 binding to rat cerebellar membranes by the compound at logC = -5M
[5] = biological target: Inositol 1,4,5-trisphosphate-gated calcium channel ITPR3 (Rattus norvegicus) (UniProt Q63269); assay: Inositol 1,4,5-trisphosphate receptor activity by residual [3H]- IP3 binding to rat cerebellar membranes by the compound at logC = -8M

Chain of Inositol 1,4,5-trisphosphate-gated calcium channel ITPR3 (Rattus norvegicus) (Q63269 whole entry): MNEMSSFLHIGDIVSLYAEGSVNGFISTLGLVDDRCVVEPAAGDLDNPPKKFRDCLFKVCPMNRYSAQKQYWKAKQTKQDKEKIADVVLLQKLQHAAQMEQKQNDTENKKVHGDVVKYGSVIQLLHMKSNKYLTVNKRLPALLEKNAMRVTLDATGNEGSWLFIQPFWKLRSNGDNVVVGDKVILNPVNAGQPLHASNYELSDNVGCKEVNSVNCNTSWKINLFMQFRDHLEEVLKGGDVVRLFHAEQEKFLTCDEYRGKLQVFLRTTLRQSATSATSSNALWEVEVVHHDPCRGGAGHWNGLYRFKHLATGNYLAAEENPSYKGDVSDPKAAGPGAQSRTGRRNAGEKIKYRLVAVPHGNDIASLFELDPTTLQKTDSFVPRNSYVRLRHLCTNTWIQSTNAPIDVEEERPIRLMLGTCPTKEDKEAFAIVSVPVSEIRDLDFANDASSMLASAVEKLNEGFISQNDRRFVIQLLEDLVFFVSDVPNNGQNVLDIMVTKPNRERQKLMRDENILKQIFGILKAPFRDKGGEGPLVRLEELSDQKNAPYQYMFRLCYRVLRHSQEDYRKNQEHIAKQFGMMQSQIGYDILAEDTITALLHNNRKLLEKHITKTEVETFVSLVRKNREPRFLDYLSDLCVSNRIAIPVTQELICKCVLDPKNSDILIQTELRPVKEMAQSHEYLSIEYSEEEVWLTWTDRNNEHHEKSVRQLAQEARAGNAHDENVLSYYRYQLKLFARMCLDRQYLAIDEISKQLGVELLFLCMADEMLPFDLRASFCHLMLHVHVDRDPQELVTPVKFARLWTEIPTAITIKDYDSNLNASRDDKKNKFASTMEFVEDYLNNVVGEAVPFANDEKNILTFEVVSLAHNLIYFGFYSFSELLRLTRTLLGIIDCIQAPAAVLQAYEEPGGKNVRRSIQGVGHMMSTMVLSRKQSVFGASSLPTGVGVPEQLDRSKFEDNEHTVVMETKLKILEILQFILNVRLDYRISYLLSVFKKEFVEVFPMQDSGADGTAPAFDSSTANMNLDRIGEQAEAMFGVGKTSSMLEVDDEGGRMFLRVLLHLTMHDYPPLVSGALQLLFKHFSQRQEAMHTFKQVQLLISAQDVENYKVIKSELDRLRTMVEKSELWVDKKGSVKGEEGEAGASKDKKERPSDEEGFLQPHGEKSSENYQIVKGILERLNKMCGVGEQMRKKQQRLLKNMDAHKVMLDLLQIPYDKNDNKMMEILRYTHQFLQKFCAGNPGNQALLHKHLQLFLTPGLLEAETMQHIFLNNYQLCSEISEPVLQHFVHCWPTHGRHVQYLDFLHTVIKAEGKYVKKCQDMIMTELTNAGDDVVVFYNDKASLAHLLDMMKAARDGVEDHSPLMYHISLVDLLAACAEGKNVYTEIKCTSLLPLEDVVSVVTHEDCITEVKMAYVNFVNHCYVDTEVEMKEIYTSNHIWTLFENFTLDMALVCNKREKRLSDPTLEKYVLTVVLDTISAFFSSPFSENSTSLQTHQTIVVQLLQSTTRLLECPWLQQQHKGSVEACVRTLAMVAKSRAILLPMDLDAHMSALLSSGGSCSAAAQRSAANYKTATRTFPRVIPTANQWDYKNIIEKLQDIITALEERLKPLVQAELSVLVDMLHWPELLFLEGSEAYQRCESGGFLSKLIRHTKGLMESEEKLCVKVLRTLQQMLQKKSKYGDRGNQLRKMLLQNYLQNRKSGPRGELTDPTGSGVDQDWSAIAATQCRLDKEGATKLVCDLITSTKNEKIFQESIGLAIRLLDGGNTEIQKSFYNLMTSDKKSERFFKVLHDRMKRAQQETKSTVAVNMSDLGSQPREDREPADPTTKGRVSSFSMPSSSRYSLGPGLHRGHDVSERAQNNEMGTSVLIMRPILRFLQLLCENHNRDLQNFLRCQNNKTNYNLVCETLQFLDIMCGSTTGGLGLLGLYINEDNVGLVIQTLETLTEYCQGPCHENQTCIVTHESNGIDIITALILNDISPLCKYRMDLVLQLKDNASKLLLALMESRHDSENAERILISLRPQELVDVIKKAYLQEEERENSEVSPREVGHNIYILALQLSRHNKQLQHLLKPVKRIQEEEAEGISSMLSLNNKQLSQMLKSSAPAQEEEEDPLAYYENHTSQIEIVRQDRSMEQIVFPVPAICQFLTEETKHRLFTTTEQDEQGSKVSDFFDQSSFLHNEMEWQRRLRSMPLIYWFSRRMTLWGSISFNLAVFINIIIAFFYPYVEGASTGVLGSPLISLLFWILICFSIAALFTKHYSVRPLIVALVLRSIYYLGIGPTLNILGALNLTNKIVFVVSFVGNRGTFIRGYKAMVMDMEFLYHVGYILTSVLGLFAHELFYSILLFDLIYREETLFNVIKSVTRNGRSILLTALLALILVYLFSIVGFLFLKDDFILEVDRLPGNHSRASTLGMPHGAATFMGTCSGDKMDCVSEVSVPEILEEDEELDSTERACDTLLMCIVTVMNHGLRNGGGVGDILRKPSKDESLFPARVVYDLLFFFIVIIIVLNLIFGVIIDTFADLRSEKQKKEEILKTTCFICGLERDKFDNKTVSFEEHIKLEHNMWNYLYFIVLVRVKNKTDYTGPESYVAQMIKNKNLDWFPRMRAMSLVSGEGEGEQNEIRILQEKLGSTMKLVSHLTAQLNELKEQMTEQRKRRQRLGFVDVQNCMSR

| residual activity [1] | residual activity [2] | residual activity [3] | residual activity [4] | residual activity [5] | SMILES |
| --- | --- | --- | --- | --- | --- |
| 5% | 20% | 95% | 5% | 70% | O=P(O)(O)O[C@@H]1[C@H](O)[C@@H](O)[C@@H](OP(=O)(O)O)[C@H](OP(=O)(O)O)[C@H]1O |
| 20% | 50% |  |  | 100% | O=P(O)(O)O[C@@H]1[C@@H](O)[C@H](OP(=O)(O)O)[C@H](O)C[C@H]1OP(=O)(O)O |
| 80% | 100% | 100% | 40% | 110% | O=P(O)(O)O[C@@H]1[C@@H](O)[C@H](OP(=O)(O)O)[C@H](O)C[C@@H]1OP(=O)(O)O |
